Assay results: patent US8691982B2, “Pyrazolo[1,5-a]-1,3,5-triazine derivatives, preparation thereof, and therapeutic use thereof” (Centre National de la Recherche Scientifique, priority 2009, dated 2014)
Structures can show the parent of a compound that is named as a salt.

Columns and labels:
[1] = target: T1, CDK9/cyclin T (Homo sapiens, UniProt P50750); assay: CDK9/cyclin T kinase assay; assay type: biochemical; settings: 15 μM ATP, 30° C., pRB fragment substrate
T1 construct: host or cells: insect cells
T1 sequence (P50750 whole entry, the tested form may be a part): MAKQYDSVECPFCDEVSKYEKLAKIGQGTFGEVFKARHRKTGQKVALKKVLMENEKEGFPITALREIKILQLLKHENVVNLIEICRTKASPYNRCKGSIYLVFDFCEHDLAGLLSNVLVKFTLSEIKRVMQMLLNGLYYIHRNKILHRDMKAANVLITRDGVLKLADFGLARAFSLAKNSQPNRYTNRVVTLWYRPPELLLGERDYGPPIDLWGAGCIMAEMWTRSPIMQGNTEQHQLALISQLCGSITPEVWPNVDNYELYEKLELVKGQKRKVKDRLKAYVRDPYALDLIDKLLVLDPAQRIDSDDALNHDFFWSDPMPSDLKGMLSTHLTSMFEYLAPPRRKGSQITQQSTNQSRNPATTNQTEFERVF
T1 sequence (O60563 whole entry partner, the tested form may be a part): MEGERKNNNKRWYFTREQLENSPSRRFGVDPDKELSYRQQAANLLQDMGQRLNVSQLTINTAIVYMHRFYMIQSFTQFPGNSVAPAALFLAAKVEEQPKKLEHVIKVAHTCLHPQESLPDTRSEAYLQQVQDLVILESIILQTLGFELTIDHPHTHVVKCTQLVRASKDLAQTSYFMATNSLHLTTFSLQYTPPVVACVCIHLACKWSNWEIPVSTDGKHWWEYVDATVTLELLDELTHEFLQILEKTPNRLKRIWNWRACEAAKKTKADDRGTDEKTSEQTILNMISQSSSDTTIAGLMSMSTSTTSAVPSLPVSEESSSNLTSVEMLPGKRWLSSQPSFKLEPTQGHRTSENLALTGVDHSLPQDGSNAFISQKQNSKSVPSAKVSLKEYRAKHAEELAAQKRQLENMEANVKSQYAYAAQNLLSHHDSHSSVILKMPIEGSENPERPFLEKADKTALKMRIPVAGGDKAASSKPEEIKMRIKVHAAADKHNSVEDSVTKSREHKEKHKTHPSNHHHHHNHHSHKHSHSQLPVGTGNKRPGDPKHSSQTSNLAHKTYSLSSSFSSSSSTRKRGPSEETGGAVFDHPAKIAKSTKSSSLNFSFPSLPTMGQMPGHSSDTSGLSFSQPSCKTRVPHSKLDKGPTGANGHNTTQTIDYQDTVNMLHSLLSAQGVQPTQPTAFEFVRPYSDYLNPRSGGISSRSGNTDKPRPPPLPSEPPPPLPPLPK

[2] = target: DYRK1A (Homo sapiens, UniProt Q13627); assay: DYRK1A kinase assay; assay type: biochemical; settings: 15 μM ATP, 30° C., myelin basic protein substrate
Method: (§1) The blank values were subtracted and the activities calculated as μmoles of phosphate incorporated per 10 minutes of incubation. […] Controls were performed with appropriate dilutions of dimethyl sulfoxide.
(§2) ATP (3000 Ci/mmol; 10 mCi/ml) in a final volume of 30 μl. After incubation for 30 minutes at 30° C., aliquotes of 25 μl of the supernatant were spotted onto Whatman P81 phosphocellulose paper filters and, 20 seconds later, the filters were washed five times (for at least five minutes each time) in a solution of 10 ml of phosphoric acid/liter of water. The wet filters were subjected to counting in the presence of an ACS scintillation fluid from Amersham. CDK2/cyclin A (human, recombinant, expressed in insect cells) was assayed as described for CDK1/cyclin B. CDK5/p25 was reconstituted by mixing equal amounts of recombinant mammalian CDK5 and p25 expressed in E. coli as a GST (glutathione-S-transferase) fusion protein and purified by affinity chromatography on glutathione-agarose (p25 is a truncated version of p35, the 35 kDa CDK5 activator). […] DYRK1A (human, recombinant, expressed in E. coli as a GST fusion protein) was purified on glutathione-agarose, assayed as described for CDK1/cyclin B with myelin basic protein (1 mg/ml) as substrate.

[3] = target: CK1δ/ε; assay: CK1δ/ε kinase assay; assay type: biochemical, pig; settings: 15 μM ATP, 30° C., CK1-specific peptide substrate
Method: as §1, §2

[4] = target: T2, CDK2/cyclin A (Homo sapiens, UniProt P24941); assay: CDK2/cyclin A kinase assay; assay type: biochemical; settings: 15 μM ATP, 30° C., histone H1 substrate
T2 construct: host or cells: insect cells
Method: (§3) Buffer C: 60 mM β-glycerophosphate, 15 mM p-nitrophenyl phosphate, 25 mM Mops (pH 7.2), 5 mM EGTA, 15 mM MgCl2, 1 mM DTT, 1 mM sodium vanadate, 1 mM phenyl phosphate, 10 μg leupeptin/ml, 10 μg aprotinin/ml and 100 μM benzamidine.
(§4) Controls were performed with appropriate dilutions of dimethyl sulfoxide.
as §2

[5] = target: CDK1/cyclin B; assay: CDK1/cyclin B kinase assay; assay type: biochemical, starfish (Marthasterias glacialis); settings: 15 μM ATP, 30° C., histone H1 substrate
Method: Homogenization buffers: 60 mM β-glycerophosphate, 15 mM p-nitrophenyl phosphate, 25 mM Mops (pH 7.2), 15 mM EGTA, 15 mM MgCl2, 1 mM DTT, 1 mM sodium vanadate, 1 mM NaF, 1 mM phenyl phosphate, 10 μg leupeptin/ml, 10 μg aprotinin/ml, 10 μg soybean trypsin inhibitor/ml and 100 μM benzamidine.
as §3, §4, §2

[6] = target: CDK5/p25 (Homo sapiens, UniProt Q00535); assay: CDK5/p25 kinase assay; assay type: biochemical, mammalian; settings: 15 μM ATP, 30° C., histone H1 substrate
Sequence of CDK5/p25 (Q00535 whole entry, species assumed): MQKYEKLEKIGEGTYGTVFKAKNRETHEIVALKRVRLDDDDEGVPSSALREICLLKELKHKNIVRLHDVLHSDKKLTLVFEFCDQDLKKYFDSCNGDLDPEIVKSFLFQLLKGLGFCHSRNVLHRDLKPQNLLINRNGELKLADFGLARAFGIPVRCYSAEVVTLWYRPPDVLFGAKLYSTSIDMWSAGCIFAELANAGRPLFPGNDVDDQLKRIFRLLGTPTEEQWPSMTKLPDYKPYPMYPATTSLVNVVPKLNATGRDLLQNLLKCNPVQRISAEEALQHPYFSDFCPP
Sequence of CDK5/p25 (Q15078 99-307 partner limits assumed, species assumed): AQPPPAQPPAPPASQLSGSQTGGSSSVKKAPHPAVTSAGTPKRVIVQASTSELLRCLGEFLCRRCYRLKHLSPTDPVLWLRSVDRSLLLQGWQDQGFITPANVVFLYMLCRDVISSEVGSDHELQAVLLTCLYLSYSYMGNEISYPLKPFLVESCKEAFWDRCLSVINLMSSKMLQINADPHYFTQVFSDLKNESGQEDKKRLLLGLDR
Method: as §3, §4, §2

[7] = target: GSK-3α/β; assay: GSK-3α/β kinase assay; assay type: biochemical, pig; settings: 15 μM ATP, 30° C., buffer A, GS-1 substrate
[8] = system: SH-SY5Y human neuroblastoma cells; assay: SH-SY5Y cell viability (MTS reduction); assay type: cell-based; settings: SH-SY5Y cell line, cell viability by MTS
Method: A Cell Titer 96® kit containing the MTS reagent was purchased from Promega (Madison, Wis., USA). The protease inhibitor cocktail came from Roche and the fetal calf serum (FCS) came from Invitrogen. The reagents not listed came from Sigma, unless otherwise indicated.
The SH-SY5Y human neuroblastoma cell line was grown in a DMEM medium with L-glutamine from Invitrogen (Cergy Pontoise, France), antibiotics and 10% by volume of FCS from Invitrogen. The general culture conditions were a 5% CO2 atmosphere and a temperature of 37° C. The culture plates and other disposable plastic tools were supplied by Corning (Corning, N.Y., USA). The treatments with the compounds of the invention were carried out on cultures in exponential growth over time, and indicated concentrations. The control experiments were carried out also using suitable dilutions of DMSO.
The cell viability was determined by measuring the reduction of 3-(4,5-dimethylthiazol-2-yl)-5-(3-carboxymethoxyphenyl)-2-(4-sulfophenyl)-2H-tetrazolium (MTS).

[9] = system: Human chronic lymphoid leukemia (B-CLL) lymphocytes; assay: B-CLL cell apoptosis (annexin V / propidium iodide, flow cytometry); assay type: cell-based; settings: Homo sapiens, B-CLL cells from patients
Method: The CLL cells were isolated from heparinized blood of untreated patients after informed consent.
The mononuclear cells were isolated by centrifugation on a Lymphosep density gradient (Biowest). […] When the percentage of CD19+/CD5+ cells was less than 90%, the B lymphocytes were enriched using the kit II for B-cell enrichment by immunomagnetic depletion of the monocytes, NK cells, granulocytes and T lymphocytes (Miltenyi Biotech).
After incubation, the B-CLL cells were harvested, washed in PBS and resuspended in 100 μl of 1× binding buffer containing FITC-conjugated annexin V and propidium iodide (Beckman Coulter Apoptosis Detection Kit). After incubation for 10 min on ice, the cells were analyzed by flow cytometry and the percentage of cells undergoing apoptosis was determined.

Row | Structure (SMILES) | IC50 [1] [nM] | IC50 [2] [nM] | IC50 [3] [nM] | IC50 [4] [nM] | IC50 [5] [nM] | IC50 [6] [nM] | IC50 [7] [nM] | IC50 ([8]; Homo sapiens) [nM] | IC50 [8] [nM] | IC50 [9] [nM]
1 | CC(C)c1cnn2c(NCc3ccc(-c4ccccn4)cc3)nc(NC(CO)CO)nc12 [Compound 17, 2-(1,3-dihydroxyprop-2-ylamino)-8-isopropyl-4-[4-(pyridin-2-yl)benzylamino]pyrazolo[1,5-a]-1,3,5-triazine] | 68 | 920 | 92 | 62 | 70 | 53 | 4400 | – | – | –
2 | CC(C)c1cnn2c(NCc3ccc(-c4ccsc4)cc3)nc(N[C@H](CO)[C@@H](C)O)nc12 (stereo in doubt) [Compound 16, (2R,3R)-2-(1,3-dihydroxybut-2-ylamino)-8-isopropyl-4-[4-(thiophen-3-yl)benzylamino]pyrazolo[1,5-a]-1,3,5-triazine] | 91 | 1800 | 190 | 34 | 59 | 50 | 4200 | – | – | –
3 | CC(C)c1cnn2c(NCc3ccc(-c4ccccn4)cc3)nc(N3CCN(CCO)CC3)nc12 [Compound 30, 2-[4-[8-isopropyl-4-[[4-(pyridin-2-yl)phenyl]methylamino]pyrazolo[1,5-a]-1,3,5-triazin-2-yl]piperazin-1-yl]ethanol] | – | 1400 | 560 | – | – | 380 | 2100 | 1400 | – | –
4 | CC(C)c1cnn2c(NCc3ccc(-c4ccccc4)nc3)nc(N[C@@H](CO)[C@H](C)O)nc12 [Compound 21] | – | 1200 | 110 | – | – | 43 | 1200 | – | – | –
5 | CC(C)c1cnn2c(NCc3ccc(-c4ccccc4)nc3)nc(N[C@H](CO)[C@@H](C)O)nc12 [Compound 23] | – | 1300 | 130 | – | – | < 30 | 1200 | – | – | –
6 | CC(C)c1cnn2c(NCc3ccc(-c4ccccn4)cc3)nc(N[C@@H](CO)[C@H](C)O)nc12 [Compound 15, Fumarate salt of (2S,3S)-2-(1,3-dihydroxybut-2-ylamino)-8-isopropyl-4-[4-(pyridin-2-yl)benzylamino]pyrazolo[1,5-a]-1,3,5-triazine] | 60 | 530 | 120 | 31 | 42 | 45 | 2200 | – | – | –
7 | CCc1cnn2c(NCc3ccc(-c4ccccn4)cc3)nc(N[C@@H](CC)CO)nc12 [Compound 35, (S)-8-ethyl-2-(1-hydroxybut-2-ylamino)-4-[4-(pyridin-2-yl)benzylamino]pyrazolo[1,5-a]-1,3,5-triazine] | – | 820 | 930 | – | – | 34 | 1400 | 50 | – | –
8 | CCc1cnn2c(NCc3ccc(-c4ccccn4)cc3)nc(N[C@H](CC)CO)nc12 [Compound 36, (R)-8-ethyl-2-(1-hydroxybut-2-ylamino)-4-[4-(pyridin-2-yl)benzylamino]pyrazolo[1,5-a]-1,3,5-triazine] | – | 1600 | 580 | – | – | 22 | 1600 | 26 | – | –
9 | CC[C@@H](CO)Nc1nc(NCc2ccc(-c3ccccn3)cc2)n2ncc(C(C)C)c2n1 [Compound 5, Fumarate salt of (S)-2-(1-hydroxybut-2-ylamino)-8-isopropyl-4-[4-(pyridin-2-yl)benzylamino]pyrazolo[1,5-a]-1,3,5-triazine] | 30 | 500 | 210 | 16 | 23 | 31 | 3500 | – | 80 | –
10 | CC(C)c1cnn2c(NCc3ccc(-c4ccccn4)cc3)nc(N[C@H](CO)[C@@H](C)O)nc12 [Compound 13, Fumarate salt of (2R,3R)-2-(1,3-dihydroxybut-2-ylamino)-8-isopropyl-4-[4-(pyridin-2-yl)benzylamino]pyrazolo[1,5-a]-1,3,5-triazine] | 49 | 300 | 180 | 20 | 31 | 21 | 2300 | – | – | –
11 | CC[C@H](CO)Nc1nc(NCc2ccccc2)n2ncc(C(C)C)c2n1 [N-&-N1, reference compound] | – | 1300 | 1200 | – | 90 | – | 11000 | 2600 | – | 1420
12 | CC(C)c1cnn2c(NCc3ccc(-c4ccccn4)cc3)nc(N[C@@H](CO)[C@H](C)O)nc12 (stereo in doubt) [Compound 14, (2S,3S)-2-(1,3-dihydroxybut-2-ylamino)-8-isopropyl-4-[4-(pyridin-2-yl)benzylamino]pyrazolo[1,5-a]-1,3,5-triazine] | 53 | 580 | 120 | 42 | 42 | 44 | 2500 | – | – | –
13 | CC(C)c1cnn2c(NCc3ccc(-c4ccccn4)cc3)nc(NC(CO)CO)nc12 [Compound 18, Fumarate salt of 2-(1,3-dihydroxyprop-2-ylamino)-8-isopropyl-4-[4-(pyridin-2-yl)benzylamino]pyrazolo[1,5-a]-1,3,5-triazine] | 61 | 610 | 120 | 49 | 51 | 64 | 2800 | – | – | –
14 | CCc1cnn2c(NCc3ccc(-c4ccccn4)cc3)nc(NC[C@@H](O)CO)nc12 [Compound 31, (R)-2-(1,2-dihydroxypropan-3-ylamino)-8-ethyl-4-[4-(pyridin-2-yl)benzylamino]pyrazolo[1,5-a]-1,3,5-triazine] | – | 710 | 360 | – | – | 25 | 1000 | < 30 | – | –
15 | CC(C)c1cnn2c(NCc3ccc(-c4ccccn4)cc3)nc(NC[C@H](O)CO)nc12 [Compound 9, Fumarate salt of (S)-2-(1,2-dihydroxypropan-3-ylamino)-8-isopropyl-4-[4-(pyridin-2-yl)benzylamino]pyrazolo[1,5-a]-1,3,5-triazine] | 38 | 260 | 61 | 12 | 19 | 14 | 1800 | – | – | –
16 | CC(C)c1cnn2c(NCc3ccc(-c4ccccn4)cc3)nc(N[C@H](CO)[C@@H](C)O)nc12 (stereo in doubt) [Compound 12, (2R,3R)-2-(1,3-dihydroxybut-2-ylamino)-8-isopropyl-4-[4-(pyridin-2-yl)benzylamino]pyrazolo[1,5-a]-1,3,5-triazine] | 60 | 470 | 200 | 22 | 29 | 29 | 3000 | – | – | –
17 | CC(C)c1cnn2c(NCc3ccc(-c4ccccn4)cc3)nc(N[C@H](CO)C(C)C)nc12 [Compound 28, (S)-2-(1-hydroxy-3-methylbut-2-ylamino)-8-isopropyl-4-[4-(pyridin-2-yl)benzylamino]pyrazolo[1,5-a]-1,3,5-triazine] | – | 580 | 410 | – | – | 120 | 7000 | – | – | –
